Source: EP3287466B1, “AMORPHOUS PICEATANNOL 3'-O-GLUCOSIDE AND PREPARATION METHOD THEREOF” (KPC Pharmaceuticals, Inc., priority 2015, dated 2016)
Converted amounts (≈) assume the structure as drawn.

Assay: Solubility test (shaken 30 min to saturation, content measured by HPLC)
Format: physicochemical
Details: shaken for 30min to saturation; for piceatannol 3'-O-glucoside solubility, 0.9% aqueous solution of Sodium chloride: in 0.9wt% aqueous solution of sodium chloride
Description: Appropriate amounts of samples 1 to 4 and raw material sample were taken. Water, 0.9wt% aqueous solution of sodium chloride were added, respectively, and shaken for 30min, respectively, to dissolve the sample to saturation. The above solutions were taken and subjected to HPLC to measure the content of piceatannol 3'-O-glucoside in the solutions. Table 1. Comparison of the results of piceatannol 3'-O-glucoside solubility (mg/ml)

SMILES	piceatannol 3'-O-glucoside solubility, 0.9% aqueous solution of Sodium chloride (30 min)	piceatannol 3'-O-glucoside solubility, Water (in water, 30 min)	solubility at 0.5 h (water, in water, read-out: piceatannol 3'-O-glucoside solubility, Water)
OC[C@H]1O[C@@H](Oc2cc(/C=C/c3cc(O)cc(O)c3)ccc2O)[C@H](O)[C@@H](O)[C@@H]1O [Raw material sample, piceatannol 3'-O-glucoside]	4.67 mg/mL		
OC[C@H]1O[C@@H](Oc2cc(/C=C/c3cc(O)cc(O)c3)ccc2O)[C@H](O)[C@@H](O)[C@@H]1O [Sample 4, piceatannol 3'-O-glucoside]	14.31 mg/mL	14.45 mg/mL	

Other lines, results leading:

piceatannol 3'-O-glucoside solubility, 0.9% aqueous solution of Sodium chloride (30 min)	piceatannol 3'-O-glucoside solubility, Water (in water, 30 min)	solubility at 0.5 h (water, in water, read-out: piceatannol 3'-O-glucoside solubility, Water)	SMILES
14.19 mg/mL			OC[C@H]1O[C@@H](Oc2cc(/C=C/c3cc(O)cc(O)c3)ccc2O)[C@H](O)[C@@H](O)[C@@H]1O [Sample 2, piceatannol 3'-O-glucoside]
		15.2 mg/mL (≈ 37.5 mM)	OC[C@H]1O[C@@H](Oc2cc(/C=C/c3cc(O)cc(O)c3)ccc2O)[C@H](O)[C@@H](O)[C@@H]1O [Sample 3, piceatannol 3'-O-glucoside]
14.36 mg/mL			OC[C@H]1O[C@@H](Oc2cc(/C=C/c3cc(O)cc(O)c3)ccc2O)[C@H](O)[C@@H](O)[C@@H]1O [Sample 1, piceatannol 3'-O-glucoside]
